Key:
Aurora B = Aurora B (Homo sapiens, UniProt Q96GD4); experiment: Aurora B enzyme assay (Caliper); type: biochemical
Experimental: (§1) The Aurora and other kinase assays described here were performed on two Caliper Life Sciences systems, the LC3000 and the Desktop Profiler. These provide data on enzyme activity via measurement of the relative amounts of phosphorylated or unphosphorylated fluorescently labelled substrate peptide at the end of an enzymatic reaction. These different states of peptide are resolved by applying a potential difference across the sample. The presence of a charged phosphate group on the product (as opposed to the substrate) causes a different peptide mobility between the two peptides. This is visualized by excitation of a fluorescent label on the substrate and product peptides and represented as peaks within the analysis software.

Aurora A = target: T1, Aurora A (Homo sapiens, UniProt O14965); experiment: Aurora A enzyme assay (Caliper LC3000 mobility shift); type: biochemical
T1 construct: N-terminal GST fusion with full length Aurora A (1-403 amino acids); purchased Carna Biosciences 05-101
T1 sequence (O14965 1-403): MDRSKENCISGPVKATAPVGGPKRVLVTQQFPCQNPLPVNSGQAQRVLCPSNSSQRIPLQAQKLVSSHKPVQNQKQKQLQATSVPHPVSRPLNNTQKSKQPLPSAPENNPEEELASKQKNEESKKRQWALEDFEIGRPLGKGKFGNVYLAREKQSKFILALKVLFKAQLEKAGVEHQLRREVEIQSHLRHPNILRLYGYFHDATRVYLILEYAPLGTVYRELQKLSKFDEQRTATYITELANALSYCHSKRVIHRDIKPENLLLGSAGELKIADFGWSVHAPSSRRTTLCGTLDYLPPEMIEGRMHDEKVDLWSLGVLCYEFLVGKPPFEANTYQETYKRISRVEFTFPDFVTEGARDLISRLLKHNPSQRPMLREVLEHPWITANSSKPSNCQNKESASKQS
Experimental: as §1
For example, in order to measure inhibitor activity of Aurora A inhibitors in the Caliper Life Sciences LC3000, a TTP Mosquito liquid handling instrument was used to place […] of an appropriate concentration of inhibitor in 100% DMSO (for a dose response curve calculation) into each well of a 384-well plate. To this reaction components were added to a final volume of 25 μl: • 0.067 ng/μl GST-Aurora A (Carna Biosciences 05-101. N-terminal GST fusion with full length Aurora A (1-403 amino acids), accession number NP_940835.1). • 15 μM ATP (Fluka, 02055) • 1 mM DTT (Sigma, D0632) • 1 mM MgC12 (Sigma, M1028) • 1 μM substrate peptide (sequence FITC-LRRASLG-(CONH2), synthesized by Tufts Peptide Synthesis service. • 100 mM HEPES pH 7.5 (Calbiochem, 391338) • 0.015% Brij-35 (Sigma, B4184)
The reaction was incubated for 90 min at 25° C., and then stopped by the addition of 70 μl of Stop buffer (100 mM HEPES pH 7.5, 0.015% Brij-35, 10 mM EDTA (Sigma, E7889)).
The plate was read on a Caliper LC 3000 in an Off-Chip mobility shift assay format, using the following parameters for a 12-sipper chip: screening pressure −1.8 psi, upstream voltage −2700, downstream voltage −1000. These conditions cause unphosphorylated substrate and phosphorylated product peptide to resolve as separate peaks allowing direct measurement of percentage of conversion of substrate to product. The percent conversion was plotted against concentration of inhibitor to produce a sigmoidal dose response curve, from which an IC50 was calculated using XLFit for Microsoft Excel.

[1] = target: kinases (not incl. Aurora); experiment: Kinase inhibition profile (not incl. Aurora); type: biochemical; conditions: hit means >79% inhibition
Experimental: as §1
The Desktop Profiler utilizes the same principal as the LC 3000 for calculating percentage conversion of a substrate to product. Caliper Life Sciences provided proprietary flash frozen pre-made 384 well plates containing selected kinases. Each column in the 384 well plate contained a particular selected kinase. A second plate, the ‘substrate plate’ contained a mix of fluorescently labeled peptide substrate and ATP. These were arranged in columns so that transfer for substrate plate to enzyme plate provided the correct enzyme with the correct substrate/ATP concentration.
Compounds were added to a thawed enzyme plate in the desired format, in single concentrations. Reactions were initiated by transfer of the ubstrate/ATP mix from the substrate plate. The enzyme plate was incubated for 90 mins at 25 °C. The reaction was stopped by addition of […] of Stop Buffer (100 mM HEPES pH 7.5, 0.015% Brij-35, 10 mM EDTA (Sigma, E7889)).
Plates were read in a manner identical to that of the LC3000, and the ratio between substrate and product peaks provided the activity of the enzyme in that well. This was best represented by a plate heat map which colors each well by percent inhibition as compared to positive and negative controls (no inhibitors and no ATP respectively).

A549 = experiment: Cellular activity A549; type: cell-based; conditions: Homo sapiens
Experimental: (§2) The susceptibility of a particular cell to treatment with the compounds according to the invention was determined by in vitro tests. Typically, a culture of the cell was combined with a compound according to the invention at various concentrations for a period of time that was sufficient to allow the active agents to induce cell death or to inhibit migration, usually between about one hour and one week. In vitro testing was carried out using cultivated cells from a biopsy sample. The viable cells remaining after the treatment then were counted.

MiaPaca2 = experiment: Cellular activity MiaPaca2; type: cell-based; conditions: for IC50: Homo sapiens, MIA PaCa-2
Experimental: as §2

Sequence of Aurora B (Q96GD4 whole entry): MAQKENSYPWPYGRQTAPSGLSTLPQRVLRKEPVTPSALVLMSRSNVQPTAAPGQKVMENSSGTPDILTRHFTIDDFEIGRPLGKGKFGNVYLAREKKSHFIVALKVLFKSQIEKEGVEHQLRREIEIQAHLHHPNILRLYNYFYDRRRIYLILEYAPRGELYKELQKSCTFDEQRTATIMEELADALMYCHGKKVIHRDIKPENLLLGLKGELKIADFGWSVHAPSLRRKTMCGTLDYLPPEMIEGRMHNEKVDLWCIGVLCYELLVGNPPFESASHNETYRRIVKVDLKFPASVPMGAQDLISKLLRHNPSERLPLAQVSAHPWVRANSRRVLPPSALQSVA

IC50 (Aurora B) [µM]	IC50 (Aurora A) [µM]	Kinase Inhibition Profile (not incl. Aurora) # kinases hit/# kinases tested ([1]; at 1 μM)	Kinase Inhibition Profile (not incl. Aurora) # kinases hit/# kinases tested ([1]; at 10 μM)	IC50 (A549) [µM]	Cellular Activity MiaPaca2 IC50 (nM) (MiaPaca2; MiaPaca2)	IC50 (MiaPaca2) [µM]	SMILES
0.101 to 1	0.101 to 1	0/36	12/255				C=CC1CC2/C=C/COc3cccc(c3)Nc3ncc(F)c(n3)N[C@H]2[C@H]1C(N)=O (stereo partly drawn)
0.001 to 0.1	0.001 to 0.1	0/36 at 1 uM					C=CC1CC2/C=C\COc3cccc(c3)Nc3ncc(F)c(n3)N[C@H]2[C@H]1C(N)=O (stereo partly drawn)
0.001 to 0.1	0.001 to 0.1	1/36 at 1 uM					CCC1CC2/C=C\COc3cccc(c3)Nc3ncc(F)c(n3)N[C@H]2[C@H]1C(N)=O (stereo partly drawn)
0.101 to 1	0.101 to 1	0/36 at 1 uM					CCC1CC2CCCOc3cccc(c3)Nc3ncc(F)c(n3)N[C@H]2[C@H]1C(N)=O (stereo partly drawn)
0.101 to 1	0.101 to 1			1 to 6.25	+++=		NC(=O)[C@H]1[C@H]2C[C@H]3[C@H]1Nc1nc(ncc1F)Nc1cccc(c1)[C@H](OCCCN1CCOCC1)CS[C@@H]3C2
0.001 to 0.1	0.001 to 0.1			1 to 6.25		1 to 6.25	NC(=O)[C@H]1[C@H]2C[C@H]3[C@H]1Nc1nc(ncc1F)Nc1ccc4c(c1)CN(CC4)C(=O)CS[C@@H]3C2
0.101 to 1	0.001 to 0.1			> 6.25		> 6.25	NC(=O)[C@H]1[C@H]2C[C@H]3[C@H]1Nc1nc(ncc1F)Nc1ccc4c(c1)N(CC4)C(=O)CS[C@@H]3C2
0.001 to 0.1	0.001 to 0.1	0/76 at 1 μM		0.101 to 1		0.101 to 1	NC(=O)[C@H]1[C@H]2C[C@H]3[C@H]1Nc1nc(ncc1F)Nc1cccc(c1)[C@H](O)CS[C@@H]3C2
0.001 to 0.1	0.001 to 0.1			0.101 to 1		0.101 to 1	NC(=O)[C@H]1[C@H]2C[C@H]3[C@H]1Nc1nc(ncc1F)Nc1cccc(c1)[C@@H](O)CS[C@@H]3C2
0.001 to 0.1	0.001 to 0.1	121/267 at 1 μM		0.001 to 0.1		0.001 to 0.1	CN1CCN(c2ccc3cc2[C@@H](O)CS[C@@H]2C[C@@H]4C[C@H]2[C@@H](Nc2nc(ncc2F)N3)[C@H]4C(N)=O)CC1
0.001 to 0.1	0.001 to 0.1	121/267 at 1 μM		0.001 to 0.1		0.001 to 0.1	CN1CCN(c2ccc3cc2[C@H](O)CS[C@@H]2C[C@@H]4C[C@H]2[C@@H](Nc2nc(ncc2F)N3)[C@H]4C(N)=O)CC1
1 to 6.25	0.101 to 1	0/73 at 1 μM		> 6.25		1 to 6.25	CN1CCN(c2ccc3cc2CC(=O)NC[C@@H]2C[C@@H]4C[C@H]2[C@@H](Nc2nc(ncc2F)N3)[C@H]4C(N)=O)CC1
0.101 to 1	0.101 to 1	0/73 at 1 μM		> 6.25		1 to 6.25	CN1CCN(c2ccc3cc2C(=O)NC[C@@H]2C[C@@H]4C[C@H]2[C@@H](Nc2nc(ncc2F)N3)[C@H]4C(N)=O)CC1
	0.001 to 0.1	14/264 at 1 μM		1 to 6.25		0.101 to 1	CN1CCN(c2cc3cc(c2)C(=O)NC[C@@H]2C[C@@H]4C[C@H]2[C@@H](Nc2nc(ncc2F)N3)[C@H]4C(N)=O)CC1
0.001 to 0.1	0.001 to 0.1	2/73 at 1 μM		> 6.25		1 to 6.25	NC(=O)[C@H]1[C@@H]2C[C@H]3CNC(=O)Cn4cc(cn4)Nc4ncc(F)c(n4)N[C@@H]1[C@@H]3C2
0.001 to 0.1	0.001 to 0.1	2/36 at 1 μM		1 to 6.25		1 to 6.25	NC(=O)[C@H]1[C@H]2C[C@H]3[C@H]1Nc1nc(ncc1F)Nc1cccc(c1)C(=O)CS[C@@H]3C2 [drawing 214]
0.001 to 0.1	0.001 to 0.1		8/36 at 10 μM	> 6.25		> 6.25	O=C(O)[C@H]1[C@H]2C[C@H]3[C@H]1Nc1nc(ncc1F)Nc1cccc(c1)OCCS[C@@H]3C2 [drawing 218]
0.001 to 0.1	0.001 to 0.1	11/36 at 1 μM		1 to 6.25		1 to 6.25	NC(=O)[C@H]1[C@H]2C[C@H]3[C@H]1Nc1nc(ncc1F)Nc1cccc(c1)OCCS[C@@H]3C2 [drawing 219]
0.001 to 0.1	0.001 to 0.1	12/51 at 1 μM		0.101 to 1		0.101 to 1	CN1CCN(c2ccc3cc2OCCS[C@@H]2C[C@@H]4C[C@H]2[C@@H](Nc2nc(ncc2F)N3)[C@H]4C(N)=O)CC1 [drawing 220]
0.001 to 0.1	0.001 to 0.1	12/36 at 1		0.101 to 1		0.101 to 1	NC(=O)[C@H]1[C@H]2C[C@H]3[C@H]1Nc1nc(ncc1F)Nc1cccc(c1)NC(=O)CS[C@@H]3C2 [drawing 221]
0.001 to 0.1	0.001 to 0.1	13/36 at 1 μM		0.101 to 1		0.101 to 1	CN1CCN(c2ccc3cc2NC(=O)CS[C@@H]2C[C@@H]4C[C@H]2[C@@H](Nc2nc(ncc2F)N3)[C@H]4C(N)=O)CC1 [drawing 222]
0.101 to 1	0.001 to 0.1	12/38 at 1 μM		> 6.25		> 6.25	N#Cc1ccc2cc1NC(=O)CS[C@@H]1C[C@@H]3C[C@H]1[C@@H](Nc1nc(ncc1F)N2)[C@H]3C(N)=O [drawing 223]
0.001 to 0.1	0.001 to 0.1			1 to 6.25		1 to 6.25	NC(=O)[C@H]1[C@H]2C[C@H]3[C@H]1Nc1nc(ncc1F)Nc1cccc(c1)CCS[C@@H]3C2 [drawing 234]
0.001 to 0.1	0.001 to 0.1	1/76 at 1 μM		1 to 6.25		1 to 6.25	NC(=O)[C@H]1[C@@H]2CC3CNC(=O)c4cccc(c4)Nc4ncc(F)c(n4)N[C@@H]1[C@@H]3C2 (stereo partly drawn) [drawing 254]

SMILES	IC50 (Aurora B) [µM]	IC50 (Aurora A) [µM]	Kinase Inhibition Profile (not incl. Aurora) # kinases hit/# kinases tested ([1]; at 1 μM)	Kinase Inhibition Profile (not incl. Aurora) # kinases hit/# kinases tested ([1]; at 10 μM)	IC50 (A549) [µM]	Cellular Activity MiaPaca2 IC50 (nM) (MiaPaca2; MiaPaca2)	IC50 (MiaPaca2) [µM]
NC(=O)[C@H]1[C@H]2C[C@H]3[C@H]1Nc1nc(ncc1F)Nc1cccc(c1)CSS[C@@H]3C2 [drawing 213]	0.001 to 0.1	0.001 to 0.1			1 to 6.25		1 to 6.25

Source: patent publication US8815872B2, “Macrocyclics pyrimidines as aurora kinase inhibitors” (Merck Patent GmbH, priority 2008, dated 2014)
